US20050148553A1, “Use of tigecycline, alone, or in combination with rifampin to treat osteomyelitis and/or septic arthritis” (priority 2003, published 2005)

Assay: Whole body autoradiography after 30-minute 3 mg/kg IV infusion of [^14C]-tigecycline
Assay type: in vivo, Sprague-Dawley rats
Protocol: Male Sprague-Dawley and Long-Evans rats were obtained from Charles River Breeding Laboratories, Raleigh, N.C., and were quarantined for at least one week prior to the start of the study. […] The dosing solution was diluted and radioassayed directly in Ultima Gold scintillation counting cocktail (Packard Inc.). […] All pumps were calibrated prior to the administration of the compound. Rats were anesthetized with isoflurane prior to cardiac puncture exsanguination at the prescribed times after dosing. […] Control whole blood was collected from male Sprague-Dawley rats into tubes containing sodium heparin. Pooled blood was used to prepare the calibration standards and quality control samples. The standards were used to construct the standard curve for the quantification of radiolabeled drug distribution in tissues of whole blood cryosections. The quality controls, which were embedded in the same CMC block with each rat, were used for assessing intra- and inter-section variation in the thickness of rat whole-body cryosections. […] Immediately following euthanasia, each rat was totally immersed in a bath of hexane and dry ice (−75° C.) until frozen. Each carcass was dried and stored at −30° C. until embedded. […] Each frozen rat was sagitally sectioned at −20° C. A sufficient number of sections were collected to ensure sampling of all tissues of interest. The sections were dehydrated overnight in a cryochamber and then rapidly transferred to a dessicator containing CaSO4 to prevent condensation of atmospheric moisture while equilibrating to room temperature. The sections were mounted on cardboard and labeled with [^14C]-labeled black ink with a unique identification number. […] A small piece of Scotch tape was placed over the dried radioactive ink to prevent the contamination of the storage phosphor screens. Phosphor imaging plates, BAS-SR 2025 (Fuji Photo Film Co., Japan) were exposed to bright visible light for 20 minutes using an IP eraser (Raytest, USA Inc., New Castle, Del.) to remove background radiation. Sections and calibration blood standards were concurrently placed in direct contact with Ips and exposed for 7 days. All sections were stored at room temperature in a lead shielding box to minimize background levels. Phosphor images were generated using a Fujifilm BAS-5000 Bio-Imaging Analyzer and quantitated by MCID M2 Software, version 3.2 (Imaging Research Inc., St. Catherines, Ontario, Canada). The STDs and QCs were analyzed using the circular sampling tool in the MCID software program. Areas of interest in whole-body sections were manually outlined with the regional sampling tool to generate count data. Radioactive concentrations in select tissues were determined by digital analysis of the resulting autoradiograms on the basis of a calibration curve. […] The linear regression curve was then used to determine the concentration of unknown radioactivity of study samples. […] Blood samples were combusted using a Model 307 sample oxidizer (Packard Instrument Company). […] Research Triangle Park, N.C.), which applies a model-independent approach and standard procedures as described in Gibaldi and Perrier. Gibaldi, Pharmacokinetics, 1982. […] For IV infusion dosing, C30 min was the concentration at 30 minutes, the first sampling time point. The maximum plasma concentration (Cmax) and the corresponding time of peak concentration following IV administration were obtained directly by numerical inspection from the individual concentration-time data. The terminal half-life was calculated by the ratio of ln2/λz where λz is derived from the terminal slope of the concentration time curve. The area under the plasma concentration versus time curve from zero to infinity was calculated using the trapezoidal rule, where Clast is the last measurable plasma concentration. […]

CN(C)c1cc(NC(=O)CNC(C)(C)C)c(O)c2c1C[C@H]1C[C@H]3[C@H](N(C)C)C(O)=C(C(N)=O)C(=O)[C@@]3(O)C(O)=C1C2=O [[^14C]-Tigecycline]
Mean concentration of total radioactivity (Liver, 24 Hrs): 160 ng equiv./g | Tissue:Plasma Ratio (Liver, 24 Hrs): 10.8 | Mean concentration of total radioactivity (Liver, 72 Hrs): 22.7 ng equiv./g | Tissue:Plasma Ratio (Liver, 72 Hrs): 5.26 | Mean concentration of total radioactivity (Liver, 168 Hrs): 13.3 ng equiv./g | Mean concentration of total radioactivity (Liver, 336 Hrs): <5.10 ng equiv./g | AUC (Liver, first AUC column): 52676 Ng eq hr/g | Mean concentration of total radioactivity (Lung, 0.5 Hrs): 2981 ng equiv./g | Tissue:Plasma Ratio (Lung, 0.5 Hrs): 3.33 | Mean concentration of total radioactivity (Lung, 8.5 Hrs): 496 ng equiv./g | Tissue:Plasma Ratio (Lung, 8.5 Hrs): 0.984 | Mean concentration of total radioactivity (Lung, 24 Hrs): 73.1 ng equiv./g | Tissue:Plasma Ratio (Lung, 24 Hrs): 4.96 | Mean concentration of total radioactivity (Lung, 72 Hrs): 13.5 ng equiv./g | Tissue:Plasma Ratio (Lung, 72 Hrs): 3.13 | Mean concentration of total radioactivity (Lung, 168 Hrs): <5.10 ng equiv./g | Mean concentration of total radioactivity (Lung, 336 Hrs): <5.10 ng equiv./g | AUC (Lung, first AUC column): 21263 Ng eq hr/g | AUC (Lymph Node): 37010 Ng eq hr/g | Mean concentration of total radioactivity (Lymph Node, 0.5 Hrs): 3473 ng equiv./g | Tissue:Plasma Ratio (Lymph Node, 0.5 Hrs): 3.88 | Mean concentration of total radioactivity (Lymph Node, 8.5 Hrs): 1276 ng equiv./g | Tissue:Plasma Ratio (Lymph Node, 8.5 Hrs): 2.53 | Mean concentration of total radioactivity (Lymph Node, 24 Hrs): 180 ng equiv./g | Tissue:Plasma Ratio (Lymph Node, 24 Hrs): 12.2 | Mean concentration of total radioactivity (Lymph Node, 72 Hrs): 29.1 ng equiv./g | Tissue:Plasma Ratio (Lymph Node, 72 Hrs): 6.75 | Mean concentration of total radioactivity (Lymph Node, 168 Hrs): <5.10 ng equiv./g | Mean concentration of total radioactivity (Lymph Node, 336 Hrs): <5.10 ng equiv./g | AUC (Lymph Node, first AUC column): 36478 Ng eq hr/g | AUC (Muscle): 34910 Ng eq hr/g | Mean concentration of total radioactivity (Muscle, 0.5 Hrs): 2260 ng equiv./g | Tissue:Plasma Ratio (Muscle, 0.5 Hrs): 2.52 | Mean concentration of total radioactivity (Muscle, 8.5 Hrs): 1863 ng equiv./g | Tissue:Plasma Ratio (Muscle, 8.5 Hrs): 3.70 | Mean concentration of total radioactivity (Muscle, 24 Hrs): 85.8 ng equiv./g | Tissue:Plasma Ratio (Muscle, 24 Hrs): 5.801 | Mean concentration of total radioactivity (Muscle, 72 Hrs): 6.24 ng equiv./g | Tissue:Plasma Ratio (Muscle, 72 Hrs): 1.45 | Mean concentration of total radioactivity (Muscle, 168 Hrs): <5.10 ng equiv./g | Mean concentration of total radioactivity (Muscle, 336 Hrs): <5.10 ng equiv./g | AUC (Muscle, first AUC column): 34833 Ng eq hr/g | AUC (Pancreas): 33014 Ng eq hr/g | Mean concentration of total radioactivity (Pancreas, 0.5 Hrs): 4437 ng equiv./g | Tissue:Plasma Ratio (Pancreas, 0.5 Hrs): 4.96 | Mean concentration of total radioactivity (Pancreas, 8.5 Hrs): 971 ng equiv./g | Tissue:Plasma Ratio (Pancreas, 8.5 Hrs): 1.93 | Mean concentration of total radioactivity (Pancreas, 24 Hrs): 70.0 ng equiv./g | Tissue:Plasma Ratio (Pancreas, 24 Hrs): 4.75 | Mean concentration of total radioactivity (Pancreas, 72 Hrs): 7.41 ng equiv./g | Tissue:Plasma Ratio (Pancreas, 72 Hrs): 1.72 | Mean concentration of total radioactivity (Pancreas, 168 Hrs): <5.10 ng equiv./g | Mean concentration of total radioactivity (Pancreas, 336 Hrs): <5.10 ng equiv./g | AUC (Pancreas, first AUC column): 32908 Ng eq hr/g | AUC (Pituitary): 45164 Ng eq hr/g | Mean concentration of total radioactivity (Pituitary, 0.5 Hrs): 3693 ng equiv./g | Tissue:Plasma Ratio (Pituitary, 0.5 Hrs): 4.13 | Mean concentration of total radioactivity (Pituitary, 8.5 Hrs): 2014 ng equiv./g | Tissue:Plasma Ratio (Pituitary, 8.5 Hrs): 4.00 | Tissue:Plasma Ratio (Pituitary, 24 Hrs): 9.79 | Tissue:Plasma Ratio (Pituitary, 72 Hrs): 4.36 | AUC (Pituitary, first AUC column): 44882 Ng eq hr/g | AUC (Plasma): 10652 Ng eq hr/g | Tissue:Plasma Ratio (Plasma, 0.5 Hrs): 1.00 | Tissue:Plasma Ratio (Plasma, 8.5 Hrs): 1.00 | Tissue:Plasma Ratio (Plasma, 24 Hrs): 1.00 | Tissue:Plasma Ratio (Plasma, 72 Hrs): 1.00 | AUC (Plasma, first AUC column): 10643 Ng eq hr/g | AUC (Salivary Gland): 110979 Ng eq hr/g | Tissue:Plasma Ratio (Salivary Gland, 0.5 Hrs): 6.45 | Tissue:Plasma Ratio (Salivary Gland, 8.5 Hrs): 12.53 | Tissue:Plasma Ratio (Salivary Gland, 24 Hrs): 20.3 | Tissue:Plasma Ratio (Salivary Gland, 72 Hrs): 7.32 | AUC (Salivary Gland, first AUC column): 110558 Ng eq hr/g | AUC (Skin): 36471 Ng eq hr/g | Tissue:Plasma Ratio (Skin, 0.5 Hrs): 2.15 | Tissue:Plasma Ratio (Skin, 8.5 Hrs): 1.14 | Tissue:Plasma Ratio (Skin, 24 Hrs): 16.9 | Tissue:Plasma Ratio (Skin, 72 Hrs): 19.3 | AUC (Skin, first AUC column): 31819 Ng eq hr/g | AUC (Spleen): 70522 Ng eq hr/g | Cmax (Spleen): 6627 Ng equiv/g | Tissue:Plasma Ratio (Spleen, 0.5 Hrs): 7.40 | Tissue:Plasma Ratio (Spleen, 8.5 Hrs): 3.36 | Tissue:Plasma Ratio (Spleen, 24 Hrs): 32.3 | Tissue:Plasma Ratio (Spleen, 72 Hrs): 16.7 | AUC (Spleen, first AUC column): 69638 Ng eq hr/g | Tissue:Plasma Ratio (Testes, 0.5 Hrs): 0.388 | Tissue:Plasma Ratio (Testes, 8.5 Hrs): 0.716 | Tissue:Plasma Ratio (Testes, 24 Hrs): 8.08 | Tissue:Plasma Ratio (Testes, 72 Hrs): 3.80 | AUC (Testes, first AUC column): 9975 Ng eq hr/g | AUC (Testes, second AUC column): 10323 Ng eq hr/g | AUC (Testes, second AUC column, listed as [^14C]-tigecycline): 10303 Ng eq hr/g | AUC (Thymus): 35430 Ng eq hr/g | Tissue:Plasma Ratio (Thymus, 0.5 Hrs): 2.82 | Tissue:Plasma Ratio (Thymus, 8.5 Hrs): 3.16 | Tissue:Plasma Ratio (Thymus, 24 Hrs): 10.7 | Tissue:Plasma Ratio (Thymus, 72 Hrs): 3.55 | AUC (Thymus, first AUC column): 35204 Ng eq hr/g | AUC (Thyroid): 330047 Ng eq hr/g | Tissue:Plasma Ratio (Thyroid, 0.5 Hrs): 3.34 | Tissue:Plasma Ratio (Thyroid, 8.5 Hrs): 3.50 | Tissue:Plasma Ratio (Thyroid, 24 Hrs): 24.0 | Tissue:Plasma Ratio (Thyroid, 72 Hrs): 56.0 | Tissue:Plasma Ratio (Thyroid, 72 Hrs, listed as [^14C]-tigecycline): 56 | AUC (Thyroid, first AUC column): 113022 Ng eq hr/g | AUC (lung): 21523 Ng eq hr/g | elimination half-lives across tissues (male, Sprague-Dawley, rat, in vivo): 5 to 217 h
